Measurements published in patent publication US10052340B2 (XIAMEN UNIVERSITY, priority 2012, dated 2018).
Residue numbers refer to the chain shown, from its start.

Legend:
FXR F284H = molecular target: T1, FXR F284H (Homo sapiens, UniProt Q96RI1, F298H); assay: Reporter gene analysis with FXR point mutant F284H in COS-7 cells; type: cell-based; settings: COS-7, EcRE reporter, FIG. 5
T1 construct: the expression plasmid expressing full-length FXR (wt) or with mutations at the corresponding sites; expressed in transfected cells; host or cells: COS-7
Method: (§1) (2) The expression vector of FXR with point mutations at key binding sites is obtained. Quick-Change site-directed mutagenesis kit (Stratagene) is used for mutation, and the mutation reaction system is as follows: wild-type plasmid pCMX-FXR (50 ng) of 0.5 μl, mutation primer (100 μM) of 0.2 μl, pfu DNA polymerase (Invitrogen) (2 U) of 1 μl, 10 mM dNTPs of 1 μl, 10× PCR buffer of 5 μl, and ddH2O of 43 μl. PCR procedures are performed as follows: 94° C. for 2 min; 94° C. for 30 s, 55° C. for 1 min, 72° C. for 7 min, 15 cycles. 20 μl PCR product is digested with Dpn I […], followed by taking and transforming 2 μl digestion product into E. coli Trans 109 competent cells, ice bath for 30 min, and heat shock at 42° C. for 30 s. 250 μl of LB liquid medium without antibiotics is added, and preshaken at 225 rpm at 37° C. for 40 min, followed by taking 150 μl of products, spreading same on LB solid medium plates with ampicillin at 100 μg/ml and culturing them at 37° C. overnight. On the next day, the single colony is picked out and placed in 2 ml LB liquid medium containing ampicillin at 100 μg/ml, and cultured at 37° C. overnight. Plasmid extraction is performed on the shaken bacterial solution using Qiagen MiniPrep Plasmid Minipreparation Kit. The plasmid is identified by sequencing.

FXR L287T = molecular target: T2, FXR L287T (Homo sapiens, UniProt Q96RI1, L301T); assay: Reporter gene analysis with FXR point mutant L287T in COS-7 cells; type: cell-based; settings: COS-7, EcRE reporter, vs wild-type FXR, FIG. 5
T2 construct: the expression plasmid expressing full-length FXR (wt) or with mutations at the corresponding sites; expressed in transfected cells; host or cells: COS-7
T2 sequence (Q96RI1 1-472 isoform Q96RI1-2 L287T): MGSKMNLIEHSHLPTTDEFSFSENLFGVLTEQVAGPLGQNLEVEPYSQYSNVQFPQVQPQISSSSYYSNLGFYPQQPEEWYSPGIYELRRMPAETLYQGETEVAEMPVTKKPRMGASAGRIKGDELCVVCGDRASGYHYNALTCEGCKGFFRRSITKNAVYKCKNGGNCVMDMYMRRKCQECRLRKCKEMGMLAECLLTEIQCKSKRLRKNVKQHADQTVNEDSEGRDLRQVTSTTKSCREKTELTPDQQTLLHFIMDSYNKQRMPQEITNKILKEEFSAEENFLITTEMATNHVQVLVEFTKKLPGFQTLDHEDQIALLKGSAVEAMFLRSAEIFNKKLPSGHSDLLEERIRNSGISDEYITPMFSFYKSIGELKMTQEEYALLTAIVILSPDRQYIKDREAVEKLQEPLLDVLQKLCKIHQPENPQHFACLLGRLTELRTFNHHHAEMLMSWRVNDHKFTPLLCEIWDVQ
Method: as §1

FXR H447F = molecular target: T3, FXR H447F (Homo sapiens, UniProt Q96RI1, H461F); assay: Reporter gene analysis with FXR point mutant H447F in COS-7 cells; type: cell-based; settings: COS-7, EcRE reporter, vs wild-type FXR, FIG. 5
T3 construct: the expression plasmid expressing full-length FXR (wt) or with mutations at the corresponding sites; expressed in transfected cells; host or cells: COS-7
T3 sequence (Q96RI1 1-472 isoform Q96RI1-2 H447F): T2 sequence (Q96RI1 1-472 isoform Q96RI1-2 L287T) with T287L, H447F
Method: as §1

[1] = system: FXR targeting genes and genes associated with the saccharide, triglyceride and cholesterol metabolism; assay: Fluorescence quantitative PCR of liver gene expression in treated wild-type mice; type: in vivo; settings: wild-type mouse liver, real-time PCR, FIG. 13
Method: Total RNA is extracted from the tissues using an RNA extraction kit (Omega Bio-Tek, GA). TAKARA reverse transcription kit is used for the reverse transcription, and fluorescence quantitative PCR is performed with CFX™ 96 (BIO-RAD) real-time monitoring system using SYBR green fluorescent dye so as to analyze the gene expression level. The expression level of Actin gene is used as the internal reference for the results. The reaction system comprises SYBR Premix Ex Taq (2×) of 12.5 μl, PCR forward primer (10 μM) of 1 μl, PCR reverse primer (10 μM) of 1 μl, cDNA template of 2 μl, and sterilized distilled water of 8.5 μl, 25 μl in total. The two-step amplification PCR procedures are as follows: pre-denaturation at 95° C. for 30 s, PCR reaction at 95° C. for 5 s, and 60° C. for 40 s. 40 cycles.
The expression of genes associated with saccharides, lipids, and cholesterol metabolism in mouse liver treated with ligand medicaments is detected by fluorescent quantitative real-time PCR.

T1 sequence (Q96RI1 1-472 isoform Q96RI1-2 F284H): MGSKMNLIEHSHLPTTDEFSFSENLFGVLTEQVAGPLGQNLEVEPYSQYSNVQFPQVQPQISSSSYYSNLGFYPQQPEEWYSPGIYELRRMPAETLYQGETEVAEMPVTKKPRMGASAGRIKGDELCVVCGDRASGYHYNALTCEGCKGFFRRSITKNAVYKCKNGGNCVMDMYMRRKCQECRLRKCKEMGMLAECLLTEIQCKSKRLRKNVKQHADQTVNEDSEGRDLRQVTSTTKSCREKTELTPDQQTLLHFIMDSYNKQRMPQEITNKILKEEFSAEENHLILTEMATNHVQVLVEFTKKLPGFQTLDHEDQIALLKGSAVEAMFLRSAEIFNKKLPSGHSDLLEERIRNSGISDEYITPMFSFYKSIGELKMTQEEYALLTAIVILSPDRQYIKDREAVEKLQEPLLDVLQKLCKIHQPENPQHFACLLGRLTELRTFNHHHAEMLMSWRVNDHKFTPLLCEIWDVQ

**Q.** With `CC[C@H](C)[C@H]1O[C@]2(CC[C@@H]1C)C[C@@H]1C[C@@H](C/C=C(\C)C(O[C@H]3C[C@H](OC)C(O[C@H]4C[C@H](OC)[C@@H](O)[C@H](C)O4)[C@H](C)O3)[C@@H](C)/C=C/C=C3\CO[C@@H]4[C@H](O)C(C)=CC(C(=O)O1)[C@]34O)O2` (stereo partly shown) [ivermectin] as the compound, how does the “transcriptional activity of FXR mutant F284H” value (FXR F284H) read?
**A.** Its value is “incapable of activating the transcriptional activity of FXR”.

**Q.** And the “transcriptional activity of FXR mutant L287T” value (FXR L287T)?
**A.** Its value is “significantly increasing”.

**Q.** And the “transcriptional activity of FXR mutant H447F” value (FXR H447F)?
**A.** The value was “significantly increasing”.

**Q.** And the “expression of genes associated with saccharides, lipids and cholesterol metabolism in liver” value [1]?
**A.** The value was “can regulate the expression of genes associated with metabolism”.
